Results published in EP0455432A1, “Alpha-glycosyl naringin, and its preparation and uses” (KABUSHIKI KAISHA HAYASHIBARA SEIBUTSU KAGAKU KENKYUJO, priority 1990, dated 1991).

Test system: α-glucosidase (EC 3.2.1.20) derived from pig liver

Q: α-Glucosyl naringin was tested. Which “hydrolysis by α-glucosidase” value did it give?
A: The value was “hydrolyzed α-glucosyl naringin into naringin and D-glucose”.
